Measurements as given in patent US20230365592A1 (Agios Pharmaceuticals, Inc., priority 2022, published 2023).

What follows are compounds tested against T1, human PAH with the R408W mutation (Homo sapiens, UniProt P00439, R408W) (assay: Cell Based Phenylalanine Flux Assay). Conditions: A375 cells expressing R408W PAH; 24 hrs with compound, then 20 µM sepiapterin and 800 µM 13C9,15N-Phenylalanine for 4 hours; 13C-Tyrosine by LC-MS; average where tested multiple times; read-out: AC50.
T1 construct: expressed in transfected cells
T1 sequence (P00439 1-452 R408W): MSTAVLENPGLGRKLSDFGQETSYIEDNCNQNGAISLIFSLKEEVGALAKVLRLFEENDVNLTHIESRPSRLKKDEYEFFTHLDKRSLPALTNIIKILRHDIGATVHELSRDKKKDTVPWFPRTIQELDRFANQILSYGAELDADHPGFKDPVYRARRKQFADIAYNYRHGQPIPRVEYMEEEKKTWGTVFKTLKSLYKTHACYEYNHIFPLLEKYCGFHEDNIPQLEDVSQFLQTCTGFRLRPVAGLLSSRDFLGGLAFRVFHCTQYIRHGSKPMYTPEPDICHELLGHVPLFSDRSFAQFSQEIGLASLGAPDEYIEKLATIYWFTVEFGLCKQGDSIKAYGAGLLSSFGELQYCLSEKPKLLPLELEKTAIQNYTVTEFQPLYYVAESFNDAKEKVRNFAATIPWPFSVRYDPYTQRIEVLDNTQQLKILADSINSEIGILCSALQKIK
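Note: after compound treatment, cells received sepiapterin plus isotope-labelled Phenylalanine for 4 hours, then labelled Tyrosine in the medium was quantified, 10-point 2-fold dilution series run in duplicate.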

Compound	AC50 [µM]
O=C(c1cnc(-c2ncccn2)o1)N1CCc2[nH]cnc2C1c1cc2c(F)cccn2n1 (stereo not drawn) [listing 1 of 2 here]	> 5
Cc1cccc2cc(C3c4nc[nH]c4CCN3c3nnc(C4CCC4)o3)nn12 (stereo not drawn)	> 5
c1cc(C2CC2)c2cc(C3c4nc[nH]c4CCN3c3nnc(-c4ccncn4)o3)nn2c1 (stereo not drawn)	> 5
Cc1cccn2nc(C3c4nc[nH]c4CCN3c3nnc(-c4ccncn4)o3)cc12 (stereo not drawn) [listing 1 of 2 here]	> 5
CN(C)CCc1ccc2c(C(=O)N3CCc4[nH]cnc4C3c3cc4cccc(C(F)(F)F)n4n3)cnn2c1 (stereo not drawn) [listing 1 of 2 here]	> 5
CC1(c2nnc(N3CCc4[nH]cnc4C3c3cc4c(C(F)(F)F)cccn4n3)o2)CC1 (stereo not drawn)	1 to 5
CC(C)(F)c1nnc(N2CCc3[nH]cnc3C2c2cc3c(C(F)(F)F)cccn3n2)o1 (stereo not drawn)	> 5
Cc1cccn2nc(C3c4nc[nH]c4CCN3c3nnc(C(C)(C)F)o3)cc12 (stereo not drawn)	> 5
Cc1nnc(N2CCc3[nH]cnc3C2c2cc3c(OC(F)F)cccn3n2)o1 (stereo not drawn)	1 to 5
CC(C)(F)c1nnc(N2CCc3[nH]cnc3C2c2cc3c(C(F)F)cccn3n2)o1 (stereo not drawn)	> 5
Cn1cc(-c2nnc(N3CCc4[nH]cnc4C3c3cc4c(C(F)F)cccn4n3)o2)cn1 (stereo not drawn)	> 5
Nc1cnc(N2CCc3[nH]cnc3C2c2cc3cccc(C(F)(F)F)n3n2)nc1 (stereo not drawn)	> 5
Nc1cnc(N2CCc3[nH]cnc3C2c2cc3cccc(Cl)n3n2)nc1 (stereo not drawn)	1 to 5
Clc1cccc2cc(C3c4nc[nH]c4CCN3c3nnc(C4CCC4)o3)nn12 (stereo not drawn)	1 to 5
Fc1cccc2cc(C3c4nc[nH]c4CCN3c3nnc(C(F)(F)F)o3)nn12 (stereo not drawn)	1 to 5
FC(F)c1cccn2nc(C3c4nc[nH]c4CCN3c3nnc(-c4cnccn4)o3)cc12 (stereo not drawn)	1 to 5
O=C(c1cnc(-c2ncccn2)o1)N1CCc2[nH]cnc2C1c1cc2c(C(F)F)cccn2n1 (stereo not drawn)	> 5
O=C(c1cnc(-c2ncccn2)o1)N1CCc2[nH]cnc2C1c1cc2c(C(F)(F)F)cccn2n1 (stereo not drawn)	1 to 5
c1cc(C2CC2)c2cc(C3c4nc[nH]c4CCN3c3nnc(-c4cnccn4)o3)nn2c1 (stereo not drawn)	1 to 5

Compound	AC50 [µM]
O=C(c1cnc(-c2ncccn2)o1)N1CCc2[nH]cnc2C1c1cc2c(F)cccn2n1 (stereo not drawn) [listing 2 of 2 here]	> 5
FC(F)c1cccc2cc(C3c4nc[nH]c4CCN3c3nnc(C4CCC4)o3)nn12 (stereo not drawn)	1 to 5
FC(F)(F)c1cccc2cc(C3c4nc[nH]c4CCN3c3nnc(C4CCC4)o3)nn12 (stereo not drawn)	1 to 5
CC(C)(C)c1nnc(N2CCc3[nH]cnc3C2c2cc3c(F)cccn3n2)o1 (stereo not drawn)	> 5
CC(C)(C)c1nnc(N2CCc3[nH]cnc3C2c2cc3cccc(C(F)F)n3n2)o1 (stereo not drawn)	> 5
CC(C)(C)c1nnc(N2CCc3[nH]cnc3C2c2cc3cccc(C(F)(F)F)n3n2)o1 (stereo not drawn)	> 5
CC(C)(C)c1nnc(N2CCc3[nH]cnc3C2c2cc3cccc(Cl)n3n2)o1 (stereo not drawn)	> 5
Cc1cccc2cc(C3c4nc[nH]c4CCN3c3nnc(C(C)(C)C)o3)nn12 (stereo not drawn)	1 to 5
CN(C)c1ccc2c(C(=O)N3CCc4[nH]cnc4C3c3cc4cccc(C(F)F)n4n3)cnn2c1 (stereo not drawn)	1 to 5
FC(F)c1cccn2nc(C3c4nc[nH]c4CCN3c3nnc(-c4cccnn4)o3)cc12 (stereo not drawn)	1 to 5
FC(F)(F)c1cccn2nc(C3c4nc[nH]c4CCN3c3nnc(-c4cccnn4)o3)cc12 (stereo not drawn)	1 to 5
Cc1cccn2nc(C3c4nc[nH]c4CCN3c3nnc(-c4cccnn4)o3)cc12 (stereo not drawn)	1 to 5
Cc1cccn2nc(C3c4nc[nH]c4CCN3c3nnc(-c4ccncn4)o3)cc12 (stereo not drawn) [listing 2 of 2 here]	1 to 5
O=C(c1ocnc1C1CC1)N1CCc2[nH]cnc2C1c1cc2cccc(C(F)(F)F)n2n1 (stereo not drawn)	1 to 5
Cn1ccc(-c2ncc(C(=O)N3CCc4[nH]cnc4C3c3cc4c(C(F)F)cccn4n3)o2)n1 (stereo not drawn)	1 to 5
Cn1cc(-c2ncc(C(=O)N3CCc4[nH]cnc4C3c3cc4c(C(F)F)cccn4n3)o2)cn1 (stereo not drawn)	1 to 5
Nc1ccc(N2CCc3[nH]cnc3C2c2cc3c(C(F)F)cccn3n2)nc1 (stereo not drawn)	1 to 5
CN(C)CCc1ccc2c(C(=O)N3CCc4[nH]cnc4C3c3cc4cccc(C(F)(F)F)n4n3)cnn2c1 (stereo not drawn) [listing 2 of 2 here]	1 to 5

Now from value to compound:

AC50 [µM]	Compound
> 5	Cn1ccc(-c2ncc(C(=O)N3CCc4[nH]cnc4C3c3cc4ccccn4n3)o2)n1 (stereo not drawn)
> 5	Cc1c(-c2ncc(C(=O)N3CCc4[nH]cnc4C3c3cc4ccccn4n3)o2)cnn1C (stereo not drawn)
> 5	Cc1cccn2nc(C3c4nc[nH]c4CCN3C(=O)c3nnc(-c4cn[nH]c4)o3)cc12 (stereo not drawn) [listing 1 of 2 here]
> 5	O=C(c1nnc(-c2ccc(C(F)(F)F)cn2)o1)N1CCc2[nH]cnc2C1c1cc2ccccn2n1 (stereo not drawn)
> 5	c1cncc(-c2nnc(N3CCc4[nH]cnc4C3c3cc4ccccn4n3)o2)c1 (stereo not drawn) [listing 1 of 2 here]
> 5	c1ccn2nc(C3c4nc[nH]c4CCN3c3nnc(-c4ccncn4)o3)cc2c1 (stereo not drawn) [listing 1 of 2 here]
> 5	Cn1cc(-c2nc(C3CC3)c(C(=O)N3CCc4[nH]cnc4C3c3cc4ccccn4n3)o2)cn1 (stereo not drawn) [listing 1 of 2 here]
> 5	Cn1cc(-c2ncc(C(=O)N3CCc4[nH]cnc4C3c3cc4c(F)cccn4n3)o2)cn1 (stereo not drawn) [listing 1 of 2 here]
1 to 5	Cn1ncc(C(=O)N2CCc3[nH]cnc3C2c2cc3ccccn3n2)c1C(F)F (stereo not drawn)
1 to 5	Cn1ncnc1C(=O)N1CCc2[nH]cnc2C1c1cc2ccccn2n1 (stereo not drawn)
1 to 5	Cn1cc(-c2ncc(C(=O)N3CCc4[nH]cnc4C3c3cc4ccccn4n3)o2)cn1 (stereo not drawn)
1 to 5	O=C(c1nnc(-c2cn[nH]c2)o1)N1CCc2[nH]cnc2C1c1cc2ccccn2n1 (stereo not drawn)
1 to 5	O=C(C1CN(c2ccccn2)C1)N1CCc2[nH]cnc2C1c1cc2ccccn2n1 (stereo not drawn)
1 to 5	O=C(c1nc2ccccc2s1)N1CCc2[nH]cnc2C1c1cc2c(C(F)(F)F)cccn2n1 (stereo not drawn)
1 to 5	O=C(c1ncco1)N1CCc2[nH]cnc2C1c1cc2c(F)cccn2n1 (stereo not drawn)
1 to 5	Cc1nnc(C(=O)N2CCc3[nH]cnc3C2c2cc3c(F)cccn3n2)s1 (stereo not drawn)
1 to 5	Cc1cccn2nc(C3c4nc[nH]c4CCN3C(=O)c3nnc(-c4cn[nH]c4)o3)cc12 (stereo not drawn) [listing 2 of 2 here]
> 5	Nc1cnc(N2CCc3[nH]cnc3C2c2cc3ccccn3n2)nc1 (stereo not drawn)

AC50 [µM]	Compound
1 to 5	O=C(c1nccs1)N1CCc2[nH]cnc2C1c1cc2ccccn2n1 (stereo not drawn)
1 to 5	O=C(c1ncco1)N1CCc2[nH]cnc2C1c1cc2ccccn2n1 (stereo not drawn)
1 to 5	Cc1cccn2nc(C3c4nc[nH]c4CCN3C(=O)c3cnc(-c4ncccn4)o3)cc12 (stereo not drawn)
1 to 5	c1cnc(-c2nnc(N3CCc4[nH]cnc4C3c3cc4ccccn4n3)o2)nc1 (stereo not drawn)
1 to 5	c1ccn2nc(C3c4nc[nH]c4CCN3c3nnc(-c4cnccn4)o3)cc2c1 (stereo not drawn)
1 to 5	COCc1nnc(C(=O)N2CCc3[nH]cnc3C2c2cc3ccccn3n2)o1 (stereo not drawn)
1 to 5	Cc1nnc(C(=O)N2CCc3[nH]cnc3C2c2cc3ccccn3n2)s1 (stereo not drawn)
1 to 5	CC(C)(C)c1nnc(N2CCc3[nH]cnc3C2c2cc3ccccn3n2)o1 (stereo not drawn)
1 to 5	c1cnnc(-c2nnc(N3CCc4[nH]cnc4C3c3cc4ccccn4n3)o2)c1 (stereo not drawn)
1 to 5	c1cncc(-c2nnc(N3CCc4[nH]cnc4C3c3cc4ccccn4n3)o2)c1 (stereo not drawn) [listing 2 of 2 here]
1 to 5	Cn1nc(C(F)F)cc1C(=O)N1CCc2[nH]cnc2C1c1cc2ccccn2n1 (stereo not drawn)
1 to 5	c1ccn2nc(C3c4nc[nH]c4CCN3c3nnc(-c4ccncn4)o3)cc2c1 (stereo not drawn) [listing 2 of 2 here]
1 to 5	Cn1cc(-c2nc(C3CC3)c(C(=O)N3CCc4[nH]cnc4C3c3cc4ccccn4n3)o2)cn1 (stereo not drawn) [listing 2 of 2 here]
1 to 5	Cn1cc(-c2ncc(C(=O)N3CCc4[nH]cnc4C3c3cc4c(F)cccn4n3)o2)cn1 (stereo not drawn) [listing 2 of 2 here]
> 5	Cc1cccn2nc(C3c4nc[nH]c4CCN3C(=O)C3CCC3)cc12 (stereo not drawn)
> 5	O=C(C1CCC1)N1CCc2[nH]cnc2C1c1cc2ccccn2n1 (stereo not drawn)
> 5	Nc1ccc(N2CCc3[nH]cnc3C2c2cc3ccccn3n2)nc1 (stereo not drawn)
